# From patent US20180221362A1, “EZH2 INHIBITORS AND MODULATION OF REGULATORY T-CELL FUNCTION” (Constellation Pharmaceuticals, Inc., priority 2015, published 2018)
# Experiments:
# [1] = tested on: tumor-infiltrating immune cells; experiment: FACS analysis of tumor-infiltrating immune cells in CT26 tumors; assay type: in vivo, mouse; details: tumors isolated day 22
# Procedure: (§1) Tumor implantation and dosing. CT26 mouse colon carcinoma cells (ATCC CRL-2638) were expanded in vitro and 1×10^5 cells/mouse were inoculated with 50% Matrigel into the subcutaneous flank region of 6-8 week old female BABL/C mice (Taconic). Mice were randomized once tumors were palpable (>200 mm^3) and dosing was started on the same day. […] Tumors were measured and body weight recorded every 2-3 days.
# Isolation and analysis of tumor-infiltrating cells. Tumors were chopped into small pieces, digested with 3 mg/mL collagenase A and 100 μg/mL DNase I at 37° C. for 30 mins, followed by the addition of FBS. The digested tumor mass was filtered using […] filters, spun down and washed with PBS Immune cells were visualized and quantifed by FACS on the BD FACSCanto™ II flow cytometry analyzer (BD Bioscience).
# The observed efficacy pictured in FIG. 11 was accompanied by changes in the immune infiltrate present in the tumors. Tumors were isolated from mice upon termination of the study (day 22), digested and stained for immune markers allowing for quantification of immune cell populations by FACS. […] Consistent with the reduced efficacy observed in the αPD1 group, we found increased proliferating Treg cells in this group along with decreased proliferating cytotoxic CD8 cells, especially when compared to the combination group (FIG. 11). This effect was also clear if groups treated with the EZH2 inhibitor were analyzed together, and against groups not treated with the EZH2 inhibitor (FIG. 6).
# [2] = tested on: CT26 mouse colon carcinoma cells; experiment: In vitro growth/sensitivity of CT26 carcinoma cells; assay type: cell-based; details: FIG. 9
# Source text: (§2) We first evaluated whether treatment treatment of CT26 cancer cells would be sensitive to EZH2 ihibition. Protocols using CT26 cancer cells as a model for testing immunotherapy protocols and in studies on host immune response are known.
# CD8 T cells are known to be major effectors of anti-tumor efficacy in mice and humans. We also explored immune cell changes beyond what our in vitro experiments had predicted, and found several unanticipated observations. First, natural killer (NK) and NKT cells, also major drivers of anti-tumor activity were increased in Inhibitor 1-treated animals, while reduced in the αPD1 group (FIG. 12). This effect was also clear if groups treated with the EZH2 inhibitor were analyzed together, and against groups not treated with the EZH2 inhibitor (FIG. 7). Second, M2 tumor associated macrophages (TAM), known to be immuno-suppressive, reduced in Inhibitor 1-treated animals, while increased in αPD1-treated animals (FIG. 13). This effect was also observed if groups treated with the EZH2 inhibitor were analyzed together, and against groups not treated with the EZH2 inhibitor (FIG. 8). Similar results were also seen with Inhibitor 4. Growth of CT26 mouse colon carcinoma cells was assessed in the presence of increasing amounts of Inhibitor 4 concentrations. […].
# H3K27me3 = H3K27me3 levels in treated FOXP3+ T-cells; assay type: cell-based, human; details: FIG. 3B
# [3] = tested on: CT26 mouse colon carcinoma cells; experiment: CT26 allograft transplantation tumor model; assay type: in vivo; details: BALB/c mice, 21-day treatment; Inhibitor 1 200 mg/kg s.c. BID, PD-1 antibody 200 μg/mouse IP every 3-4 days; FIG. 10
# Procedure: as §1, §2
# CD8 T cells are known to be major effectors of anti-tumor efficacy in mice and humans. We also explored immune cell changes beyond what our in vitro experiments had predicted, and found several unanticipated observations. […] This effect was also clear if groups treated with the EZH2 inhibitor were analyzed together, and against groups not treated with the EZH2 inhibitor (FIG. 7). […] This effect was also observed if groups treated with the EZH2 inhibitor were analyzed together, and against groups not treated with the EZH2 inhibitor (FIG. 8). […] Growth of CT26 mouse colon carcinoma cells was assessed in the presence of increasing amounts of Inhibitor 4 concentrations. […]
# FOXP3 = FOXP3 expression by flow cytometry during Treg differentiation; assay type: cell-based, human; details: increasing concentrations, vs DMSO control; FIG. 3A
# human Treg cells = experiment: Luminex cytokine assays of day 4 iTreg culture supernatants; assay type: cell-based; details: day 4 supernatants; FIG. 3C
# Source text: Luminex cytokine assays. Cytokines were quantified from day 4 cell supernatants using Luminex multiplex assays (HTH17MAG-14K-12, Millipore), as per the manufacturer's protocol.
# The transcription factor FOXP3 is known to be an essential regulator of Treg cells, and therefore is important to understand if EZH2 plays any role in its expression.
compound,measurement,setting,value
CCS(=O)(=O)N1CCC([C@@H](C)n2c(C)c(C(=O)NCc3c(OC)cc(C)[nH]c3=O)c3ccccc32)CC1 [Inhibitor 1],NKT cells in tumors,[1]; FIG. 12,increased
same,natural killer (NK) cells in tumors,[1]; FIG. 12,increased
same,M2 tumor associated macrophages (TAM) in tumors,[1]; FIG. 13,reduced
same,CT26 cell sensitivity in vitro,[2],substantially no CT26 cell sensitivity
same,H3K27me3 in the same (FOXP3+) cells,H3K27me3,robustly decreased
same,tumor growth inhibition efficacy (CT26 tumor volume),[3],significantly efficacious
same,FOXP3 expression (frequencies of FOXP3+ cells),FOXP3,no impact
same,secretion of IFNγ to the culture medium,human Treg cells,dose-dependent increase
same,secretion of IL-10 to the culture medium,human Treg cells,dose-dependent increase
same,secretion of IL-13 to the culture medium,human Treg cells,dose-dependent increase
